# In PMC10666288, “Unveiling the Catalytic Mechanism of a Processive Metalloaminopeptidase” (Biochemistry, 2023):
# Tests used:
# Design in all cases: GG stays after cleavage) (N); made in house; host or cells: E. coli BL21(DE3)
# PaPepA [1] = molecular target: T1, PaPepA (Pseudomonas aeruginosa, UniProt Q02RY8); test: Isothermal titration calorimetry of metal binding
# Method: Purified PaPepA (100 μM) was buffer exchanged into ITC buffer (50 mM Tris, 140 mM NaCl, pH 7.4) using a Millipore Amicon Ultra-4 centrifugal unit (10 kDa MWCO). The protein was syringe-filtered through a […] and diluted to 50 μM. 3 mL solutions of filtered metal were also prepared. A 400 μM solution of MnCl2 and a 1 mM solution of MgCl2 were prepared by dilution of 1 M metal chloride stocks (Sigma) into ITC buffer.
# Buffer, protein, and metal solutions were degassed. Following extensive washes with ITC buffer, the protein was loaded into the cell (volume 1.43 mL) of a VP-ITC (MicroCal) and MnCl2 or MgCl2 solution was loaded into the syringe (total volume 300 μL). Experiments were carried out using the following settings: temperature = 25 °C, duration = 4 s, spacing = 210 s, filter period = 2 s, for 35 injections (one injection of 2 μL followed by 34 injections of 8 μL). Data were analyzed using Origin(Pro), Version 2021 (OriginLab Corporation, Northampton, Massachusetts, USA), and MicroCal PEAQ-ITC analysis software (Malvern).
# PaPepA [2] = molecular target: T1, PaPepA; format: biochemical
# PaPepA [3] = molecular target: T1, PaPepA; test: Pre-steady-state stopped-flow kinetics with global fit; format: biochemical
# Method: An Applied Photophysics SX20 stopped-flow spectrofluorimeter was used to perform kinetic measurements under pre-steady-state conditions. The instrument was equipped with a xenon lamp, a 5 μL mixing cell, and a circulating water bath to maintain constant temperature. All reactions were carried out in 100 mM HEPES (pH 8.0) and 50 mM KCl at 25 °C. Enzyme and metal ions were kept in one syringe, while the other substrate (Leu-pNA or Leu-AMC) was kept in the second syringe. The reaction was triggered by rapid mixing of 55 μL from each syringe. Three traces with 10,000 points per trace were collected per experiment.
# For absorbance measurements, product formation was monitored by reading the pNA absorbance at 405 nm (5 mm path length). Multiple turnover rates were measured in the presence of saturating concentrations of both metal and Leu-pNA. PaPepA was present at 1 or 10 μM, MnCl2 was present at 3 mM, and Leu-pNA was present at 250 μM. For fluorescence measurements, a path length of 1 mm was used. Reactions were followed by monitoring the appearance of a 7-amino-4-methylcoumarin (AMC) fluorophore following PaPepA-catalyzed breakdown of Leu-AMC. An excitation wavelength of 341 nm was used with a 400 nm cutoff filter for the emission. Slits were 1 nm for excitation and 2 nm for emission.
# Experiments under single turnover conditions monitored fluorescence change with a detector voltage of 300 V, 0.1 μM Leu-AMC, 1.5 mM MnCl2, and varying PaPepA (0.5, 1, 2, 4, 8, 16, or 32 μM). Experiments under multiple turnover conditions monitored fluorescence change with a detector voltage of 250 V, 50 μM Leu-AMC, 1.2 μM PaPepA and varying concentrations of MnCl2 (0.2, 0.4, 0.6, 1.2, 2.4, 6, 9, 12, 18, 24, 60, 120, 1200, or 3600 μM).
# Calibration curves of known concentrations of AMC were performed at detector voltages of 250 and 300 V. STO and MTO curves were divided by the slope of these calibration curves to convert the change in fluorescence observed to the concentration of AMC produced.
# Pre-steady-state data were imported into KinTek Global Explorer and fit to linear or single-exponential equations using the aFit function to obtain standard deviation estimates. A kinetic model with five steps was considered, and rate constants and outputs were fitted according to this model. Initial estimates for rate constants were based on kcat and KM values. The FitSpace Editor was employed to determine confidence intervals for each of the rate constants. More details including model fitted and parameters used are available in the Supporting Information.
# Supporting information note 4: Kintek Global Explorer fitting of stopped flow data Both MTO and STO pre-steady-state data were fit according to the mode described in Figure 4A with scaling factors for each fluorescent species (EP and P) to account for differences in AMC fluorescence whilst in complex with PaPepA versus free in solution. Scaling factors were different across STO and MTO experiments as both were carried out using different detector voltages.
# The model that best fitted acquired data was as below, where F is metal free enzyme, E1 is PaPepA with one Mn2+ ion, E is PepA with two Mn2+ ions, S is Leu- […]
# For fitting, k1 and k-1 ratios were constrained (linked) based KD for Mn2+ binding as measured by ITC (12nM). Initially, k2 and k-2 were allowed to vary without constraints, and values best fitted as well as Fitspace lower and upper boundaries are reported in Table 2. The value for k1 was best fitted as diffusion limited, and therefore was fixed in further fitting cycles. The best fitted value for k-2 was high and unconstrained, and therefore also fixed at 1000 s-1 for further fitting cycles. k3, k-3, k4, and k5 were not constrained. Multiple iterations of fitting were performed, and best fit values recorded. k1, k2, k3, k-3, k4, and k5 were evaluated using FitSpace Explorer to generate confidence intervals for each of these rate constants. […]
# [4] = multiple turnover, 50 μM Leu-AMC, […] PaPepA
# T1 sequence (Q02RY8 whole entry): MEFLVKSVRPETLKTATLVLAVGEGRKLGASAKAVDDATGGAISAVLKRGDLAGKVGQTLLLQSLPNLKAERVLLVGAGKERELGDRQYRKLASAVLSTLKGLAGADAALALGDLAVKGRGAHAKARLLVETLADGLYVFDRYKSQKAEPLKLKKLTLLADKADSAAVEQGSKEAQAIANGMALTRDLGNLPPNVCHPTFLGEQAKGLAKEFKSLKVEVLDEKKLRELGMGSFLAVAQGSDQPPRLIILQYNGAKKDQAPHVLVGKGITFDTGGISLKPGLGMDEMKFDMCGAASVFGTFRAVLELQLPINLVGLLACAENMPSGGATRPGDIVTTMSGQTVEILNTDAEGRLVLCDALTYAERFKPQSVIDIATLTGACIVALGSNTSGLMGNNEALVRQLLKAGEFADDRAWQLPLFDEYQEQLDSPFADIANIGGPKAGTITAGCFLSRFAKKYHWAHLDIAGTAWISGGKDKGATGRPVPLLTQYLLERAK
smiles,measurement,setting,value
[Mn+2] [Mn^2+],greater affinity for Mn^2+ than Mg^2+,PaPepA [1]; ITC titration curves,approximately 150 times
same,Kd,"PaPepA [1]; ITC, first line per metal: N 1, [PepA] 35.80 ± 1.5 (Mn) or 32.60 (Mg) µM, [Metal] 400.0 or 1000 µM",0.0122 ± 0.0015 µM
same,Kd,"PaPepA [1]; ITC, one binding site per monomer, 25 °C, pH 7.4",0.0136 ± 0.0005 µM
same,Kd,"PaPepA [1]; ITC, one binding site per monomer, 25 °C, pH 7.4, listed as Mn2+",0.012 µM
same,Kd,"PaPepA [1]; ITC, second line per metal: N 1, [PepA] 47.00 or 48.00 µM, [Metal] 526.5 ± 22.5 (Mn) or 1470 (Mg) µM",0.0163 ± 1e-05 µM
same,N,"PaPepA [1]; ITC, third line per metal: N fitted",0.76 ± 0.03
same,Kd,"PaPepA [1]; ITC, third line per metal: N fitted, [PepA] 47.00 or 48.00 µM, [Metal] 400.0 or 1000 µM",0.0122 ± 0.0001 µM
same,KACT,"PaPepA [2]; 5 % PEG 8000, MnCl2 varied",0.19 ± 0.03
same,kcat/KACT,"PaPepA [2]; 5 % PEG 8000, MnCl2 varied",2.2 ± 0.4
same,kcat,"PaPepA [2]; 5 % PEG 8000, labelled component varied, other saturating, in 1/s",0.43 ± 0.02
same,"k1, best-fitted value","PaPepA [3]; F + Mn = E1, global fit of MTO and STO data",1000 ± 53 μM^–1 s^–1
same,molar excess of metal over PaPepA at half maximal rate,PaPepA [3]; [4],24 fold
same,molar excess of metal over PaPepA at plateau,PaPepA [3]; [4],300 fold
